Source: US9487488B2, “Sulfonamide compound” (MITSUBISHI TANABE PHARMA CORPORATION, priority 2012, dated 2016)

Molecular target: human TRPM8 (Homo sapiens (Human), UniProt Q7Z2W7)
Experiment: TRPM8 inhibition assay (menthol-induced calcium influx, FDSS)
Format: cell-based
Conditions: HEK293 cells stably expressing human TRPM8; 100 μmol/L menthol; Fura-2AM calcium signal; read-out: TRPM8 Blocking Test (IC50/nmol/L)
Procedure: The functional activity of a test compound was determined by measuring change in intracellular calcium concentration using a calcium sensitive fluorescent dye. The change in fluorescent signal was measured by the cell imaging technology by Hamamatsu Photonics's Functional Drug Screening System (FDSS).
HEK293 cells stably expressing human TRPM8 were grown in a flask. On assay day, the culture medium was removed from the flask, and cells were washed with phosphate-buffered saline (PBS) and harvested with PBS containing 2 mmol/L of ethylenediaminetetraacetic acid disodium salt (EDTA-2Na). […] Subsequently, suspended 20,000 to 50,000 cells per well were incubated with a test compound (at varying concentrations) in each well at 37° C. for 20 minutes. Change in intracellular calcium concentration evoked by 100 μmol/L of menthol was measured for 2 minutes using FDSS. […] The concentration-response curve was generated using the average of quadruplicate wells for each data point.

Chain of human TRPM8 (Q7Z2W7 whole entry): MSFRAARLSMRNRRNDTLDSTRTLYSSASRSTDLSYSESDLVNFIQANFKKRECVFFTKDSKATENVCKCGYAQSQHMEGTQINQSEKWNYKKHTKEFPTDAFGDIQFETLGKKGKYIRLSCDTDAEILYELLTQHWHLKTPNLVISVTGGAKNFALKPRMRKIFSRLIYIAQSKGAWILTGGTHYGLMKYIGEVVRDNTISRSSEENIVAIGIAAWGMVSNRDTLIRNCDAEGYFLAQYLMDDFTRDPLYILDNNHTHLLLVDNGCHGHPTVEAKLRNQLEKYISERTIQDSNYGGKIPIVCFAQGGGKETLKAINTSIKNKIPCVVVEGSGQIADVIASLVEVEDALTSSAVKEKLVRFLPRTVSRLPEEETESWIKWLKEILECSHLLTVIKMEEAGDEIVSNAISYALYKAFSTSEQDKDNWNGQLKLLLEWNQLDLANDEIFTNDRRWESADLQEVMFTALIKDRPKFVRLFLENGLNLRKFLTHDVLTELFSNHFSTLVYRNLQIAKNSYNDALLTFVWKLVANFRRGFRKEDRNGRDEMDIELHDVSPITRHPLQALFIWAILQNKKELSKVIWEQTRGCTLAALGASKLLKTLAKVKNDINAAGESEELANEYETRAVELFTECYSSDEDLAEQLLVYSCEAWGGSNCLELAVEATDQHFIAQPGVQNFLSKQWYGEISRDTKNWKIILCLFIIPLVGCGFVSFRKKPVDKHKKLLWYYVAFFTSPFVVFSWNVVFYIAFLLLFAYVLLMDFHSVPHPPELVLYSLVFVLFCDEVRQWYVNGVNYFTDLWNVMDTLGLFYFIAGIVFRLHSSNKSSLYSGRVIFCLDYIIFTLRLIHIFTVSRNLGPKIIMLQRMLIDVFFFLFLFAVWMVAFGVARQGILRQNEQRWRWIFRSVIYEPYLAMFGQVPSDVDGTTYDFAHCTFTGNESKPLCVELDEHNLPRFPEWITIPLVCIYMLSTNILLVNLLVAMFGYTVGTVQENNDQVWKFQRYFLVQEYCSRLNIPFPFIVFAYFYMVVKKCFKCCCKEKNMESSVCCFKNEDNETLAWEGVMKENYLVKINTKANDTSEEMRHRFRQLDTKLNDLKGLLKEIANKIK

SMILES | IC50 [nmol/L]
O=C(O)c1ccc(S(=O)(=O)N(Cc2ccc(OC(F)(F)F)cc2)c2ncc3ccccc3c2C2CC2)cc1C1CC1 [Example 43] | 10.1
O=C(O)c1ccc(S(=O)(=O)N(Cc2ccc(OC(F)(F)F)cc2)c2ncc3ccccc3c2C2CC2)cc1Br [Example 48] | 6.3
O=C(O)c1ccc(S(=O)(=O)N(Cc2ccc(OC(F)(F)F)cc2)c2ncc3ccccc3c2C2CC2)cc1C(F)(F)F [Example 49] | 18.1
COc1cc(S(=O)(=O)N(Cc2ccc(OC(F)(F)F)cc2)c2ncc3ccccc3c2C2CC2)ccc1C(=O)O [Example 50] | 11.7
Cc1cc(S(=O)(=O)N(Cc2ccc(OC(F)(F)F)cc2)c2ncc3ccccc3c2C2CC2)cc(C)c1C(=O)O [Example 51] | 10.9
O=C(O)c1ccc(S(=O)(=O)N(Cc2ccc(OC(F)(F)F)cc2)c2ncc3ccccc3c2C2CC2)cc1-c1ccccc1 [Example 55] | 13.6
CC(C)c1cc(S(=O)(=O)N(Cc2ccc(OC(F)(F)F)cc2)c2ncc3ccccc3c2C(F)(F)F)ccc1C(=O)O [Example 56] | 6.6
O=C(O)c1ccc(S(=O)(=O)N(Cc2ccc(OC(F)(F)F)cc2)c2ncc3ccccc3c2C2CC2)cc1N1CCCCC1 [Example 59] | 10.3
O=C(O)c1ccc(S(=O)(=O)N(Cc2ccc(OC(F)(F)F)cc2)c2ncc3ccccc3c2C2CC2)cc1N1CCOCC1 [Example 60] | 19.6

Stronger by IC50, values ahead:

IC50 [nmol/L] | SMILES
5.6 | CC(C)c1cc(S(=O)(=O)N(Cc2ccc(OC(F)(F)F)cc2)c2ncc3ccccc3c2C2CC2)ccc1C(=O)O [Example 44]
4.6 | O=C(O)c1ccc(S(=O)(=O)N(Cc2ccc(OC(F)(F)F)cc2)c2ncc3ccccc3c2C2CC2)cc1N1CCCC1 [Example 58]
3.8 | O=C(O)c1ccc(S(=O)(=O)N(Cc2ccc(OC(F)(F)F)cc2)c2ncc3ccccc3c2C2CC2)cc1Cl [Example 47]
3.3 | Cc1cc(S(=O)(=O)N(Cc2ccc(OC(F)(F)F)cc2)c2ncc3ccccc3c2C(F)(F)F)ccc1C(=O)O [Example 46]
3 | CCc1cc(S(=O)(=O)N(Cc2ccc(OC(F)(F)F)cc2)c2ncc3ccccc3c2C(F)(F)F)ccc1C(=O)O [Example 53]
2.9 | CN(C)c1cc(S(=O)(=O)N(Cc2ccc(OC(F)(F)F)cc2)c2ncc3ccccc3c2C2CC2)ccc1C(=O)O [Example 45]
2.5 | CCCc1cc(S(=O)(=O)N(Cc2ccc(OC(F)(F)F)cc2)c2ncc3ccccc3c2C2CC2)ccc1C(=O)O [Example 57]
2.1 | CCc1cc(S(=O)(=O)N(Cc2ccc(OC(F)(F)F)cc2)c2ncc3ccccc3c2C2CC2)ccc1C(=O)O [Example 54]
1 | O=C(O)c1ccc(S(=O)(=O)N(Cc2ccc(OC(F)(F)F)cc2)c2ncc3ccccc3c2C2CC2)cc1F [Example 52]
